According to patent US5070210A, “Novel ketenimines as intermediates for insecticides” (ICI Americas Inc., priority 1990, dated 1991):

Key:
Format in all cases: in vivo
[1] = test system: Cabbage Looper [Trichoplusia ni (Hubner)]; test: Cabbage looper insecticidal test; settings: second-instar larvae, percent in solution; 3-5 days
How it was run: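 Leaf dip, squash cotyledons, 50-50 acetone-water, top dose 0.1% and lower. 5 second-instar larvae/dish, moist filter paper, high-humidity chamber. Mortality at 3-5 d; LC50 (% in solution) from dosage-mortality curves.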

[2] = test system: Aster Leafhopper [Macrosteles fascifrens (Stal)]; test: Aster leafhopper insecticidal test; settings: adults/nymphs, percent in solution; 48 hours
Description: The compounds in Tables 1 and 2 above were tested for insecticidal activity using the following testing procedures. LC50 values, based on the results of these tests and calculated according to dosage-mortality curves, are expressed in Table 3.
Aster Leafhopper [Macrosteles fascifrens (Stal)]
Oat seedlings (Avena sp) were grown in a commercial potting soil in cups. When the plants were approximately 10 cm tall they were thinned to three plants per cup and dipped for 2-3 seconds in 50-50 acetone-water solutions of the test compounds. When the plants had dried, a clear plastic tube was placed over them and the bottom end pressed into the cup. Ten aster leafhopper adults/nymphs were then placed in each tube and the tops of the tubes covered with white organdy cloth. Mortality counts were made after 48 hours. Test concentrations ranged from 0.05% down to that at which 50% mortality occurred. The LC50 values are expressed below in Table 3 under the heading "LH" in terms of the percent of the test compound in the solution.

[3] = test system: Maize weevil [Sitophilus Zeamais (Motschulsky)]; test: Maize weevil insecticidal test; settings: adult weevils, percent in solution; 48 hours
How it was run: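 LC50, in percent of compound in solution, was derived from dosage-mortality curves after 48 h at about 25 °C. Ten adult weevils per container fed on four corn seeds briefly immersed in acetone:water (50:50) solutions of up to 0.01% and dried.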

[4] = test system: Tobacco Budworm [Heliothis virescens (Fabricius)] eggs; test: Tobacco budworm egg test; settings: 2-day old eggs, percent in solution
How it was run: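 LC50 values (percent test compound in the dip solution) were calculated from dosage-mortality curves. Egg patches, 2 days old, were dipped in acetone solutions at concentrations from 0.1% downward and held at 78° F on rearing medium until control larvae hatched and fed.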

[5] = test system: Housefly [Musca domestica]; test: Housefly insecticidal test; settings: μg per 25 female flies; mortality after 48 hours
How it was run: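 LC50, as μg compound per 25 female flies, comes from dosage-mortality curves with doses from 100 μg downward. Residues were made by evaporating acetone plus 0.01% peanut oil in dishes, onto which 1-2-day-old females were caged; deaths were counted after 48 hours.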

| Structure (SMILES) | LC50, CL [1] [%] | LC50, LH [2] [%] | LC50, MW [3] [%] | LC50, TBW, E (TBW-E) [4] [%] | LC50, HF [5] [µg] |
| --- | --- | --- | --- | --- | --- |
| CC(C)C(=Nc1cccc(Br)c1)OCc1cccc(Oc2ccccc2)c1 [Compound 128] | 0.005 | 0.003 | > 0.01 | 0.037 | 4.5 |
| CC(C)C(=Nc1ccccc1Br)OCc1cccc(Oc2ccccc2)c1 [Compound 132] | 0.025 | > 0.05 | > 0.01 | > 0.1 | 65 |
| CSc1ccc(N=C(OCc2cccc(Oc3ccccc3)c2)C(C)C)cc1 [Compound 142] | 0.005 | > 0.05 | > 0.01 | 0.1 | 15 |
| COc1cccc(N=C(OCc2cccc(Oc3ccccc3)c2)C(C)C)c1 [Compound 143] | 0.002 | 0.006 | > 0.01 | < 0.1 | 10 |
| COC(=O)c1ccc(N=C(OCc2cccc(Oc3ccccc3)c2)C(C)C)cc1 [Compound 151] | 0.009 | > 0.05 | > 0.01 | > 0.1 | 38 |
| CC(C)C(=Nc1ccc(C(C)(C)C)cc1)OCc1cccc(Oc2ccccc2)c1 [Compound 153] | 0.004 | 0.0005 | > 0.01 | 0.1 | > 100 |
| Cc1cccc(N=C(OCc2cccc(Oc3ccccc3)c2)C(C)C)c1 [Compound 155] | 0.004 | > 0.05 | > 0.01 | 0.06 | 9 |
| CC(C)C(=Nc1ccc(Cl)cc1)OC(C)c1cccc(Oc2ccccc2)c1 (stereo not drawn) [Compound 457] | 0.009 | > 0.05 |  | > 0.05 | > 100 |
| CC(C)C(=Nc1ccc2c(c1)OCO2)OCc1cccc(Oc2ccc(F)cc2)n1 [Compound 465] | 0.0017 | 0.0025 |  | 0.027 | 8 |
| COCc1c(F)c(F)c(COC(=Nc2ccc(F)c(Cl)c2F)C(C)C)c(F)c1F [Compound 522] | > 0.1 | 0.05 | > 0.01 | > 0.1 |  |
| CC(C)C(=Nc1cccc(C(F)(F)F)c1)OCc1cc(Oc2ccc(F)cc2)ccn1 [Compound 528] | 0.0075 | > 0.05 | > 0.01 | > 0.1 |  |
| CC(C)C(=Nc1ccc(F)c(Cl)c1)OCc1cc(Oc2ccc(F)cc2)ccn1 [Compound 529] | > 0.0025 | > 0.05 | > 0.01 | > 0.1 |  |
| CC(C)C(=Nc1ccc(F)c(Cl)c1)OCc1cccc(Cc2ccccc2)c1 [Compound 541] | 0.001 | > 0.05 | > 0.01 |  | < 100 |
| CC(C)C(=Nc1ccc(C(F)(F)F)cc1)OCc1cccc(Cc2ccccc2)c1 [Compound 543] | 0.0008 | < 0.05 | > 0.01 |  | < 100 |
